Results from PubChem BioAssay AID1259407 (Chemical Carcinogenesis Research Information System (CCRIS), 2018).
The source made the active and inactive calls. How the calls were made is not given here. Where a SMILES comes first, the peptide text is derived from it. The star is where a group is joined. For = O=C*

Tested on: CCRIS mutagenicity, Ames/micronucleus/aberration tests
Assay: CCRIS mutagenicity studies
Settings: Method: STANDARD PLATE
[1] = Test System: AMES SALMONELLA TYPHIMURIUM, Strain/Indicator: TA98, Metabolic Activation: NONE
[2] = Test System: AMES SALMONELLA TYPHIMURIUM, Strain/Indicator: TA98, Metabolic Activation: RAT, LIVER, S-9, AROCLOR 1254
[3] = Test System: AMES SALMONELLA TYPHIMURIUM, Strain/Indicator: TA100, Metabolic Activation: NONE
[4] = Test System: AMES SALMONELLA TYPHIMURIUM, Strain/Indicator: TA100, Metabolic Activation: RAT, LIVER, S-9, AROCLOR 1254
[5] = Test System: AMES SALMONELLA TYPHIMURIUM, Strain/Indicator: TA1535, Metabolic Activation: NONE
[6] = Test System: AMES SALMONELLA TYPHIMURIUM, Strain/Indicator: TA1535, Metabolic Activation: RAT, LIVER, S-9, AROCLOR 1254
[7] = Test System: AMES SALMONELLA TYPHIMURIUM, Strain/Indicator: TA1537, Metabolic Activation: NONE
[8] = Test System: AMES SALMONELLA TYPHIMURIUM, Strain/Indicator: TA1537, Metabolic Activation: RAT, LIVER, S-9, AROCLOR 1254

Measured: mutagenic call

CSCC[C@H](NC=O)C(=O)N[C@@H](Cc1ccccc1)C(=O)O (For-Met-Phe-OH)
inactive: [1] inactive; negative | [2] inactive; negative | [3] inactive; negative | [4] inactive; negative | [5] inactive; negative | [6] inactive; negative | [7] inactive; negative | [8] inactive; negative

FC(F)C(F)(F)F
inactive: [1] inactive; negative | [2] inactive; negative | [3] inactive; negative | [4] inactive; negative | [5] inactive; negative | [6] inactive; negative | [7] inactive; negative | [8] inactive; negative | Test System: AMES SALMONELLA TYPHIMURIUM, Strain/Indicator: TA1538, Metabolic Activation: NONE inactive; negative | Test System: AMES SALMONELLA TYPHIMURIUM, Strain/Indicator: TA1538, Metabolic Activation: RAT, LIVER, S-9, AROCLOR 1254 inactive; negative | Test System: E. COLI, Strain/Indicator: WP2 UVRA, Metabolic Activation: NONE inactive; negative | Test System: E. COLI, Strain/Indicator: WP2 UVRA, Metabolic Activation: RAT, LIVER, S-9, AROCLOR 1254 inactive; negative
